Measured values taken from patent US6914045B2, “Glycopeptide antibiotics” (Wyeth Holdings Corporation, priority 2001, dated 2005).

Assays:
Experiment in all cases: in vitro antibacterial evaluation, MIC by broth dilution
Type in all cases: cell-based
Enterococcus sp. = conditions: broth dilution, 18 hours at 35° C.
Method in brief: (§1)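 MIC = lowest antibiotic concentration preventing visible growth; inoculum 5×10^5 CFU/mL; drug range 64-0.06 μg/mL; Muller-Hinton II […]; NCCLS M7-A2 guidance.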

Staphylococcus sp. = conditions: broth dilution, 18 hours at 35° C.
Method in brief: as §1

Streptococcus sp. = conditions: broth dilution, 18 hours at 35° C.
Method in brief: as §1

Escherichia coli = conditions: 18 hours at 35° C.

CC(c1ccccc1)C1NC(=O)CNC(=O)C(CO)NC(=O)C(C(O)C2CNC(=N)N2C2OC(CO)C(O)C(O)C2O)NC(=O)C(C(O)C2CNC(=N)N2)NC(=O)C(Cc2ccc(OC3OC(CO)C(OC4OC5COC(C)(c6ccc(F)cc6)OC5C(O)C4O)C(O)C3O)cc2)NC1=O (stereo not shown) [Example 216]
16 µg/mL: MIC Escherichia coli (GC 4559) (Escherichia coli)
4 µg/mL: MIC Enterococcus avium (GC 4558) (Enterococcus sp.) | MIC Enterococcus faecalis (ATCC 29212) (Enterococcus sp.) | MIC Enterococcus faecalis (GC 2242) (Enterococcus sp.) | MIC Enterococcus faecalis (GC 2691) (Enterococcus sp.) | MIC Enterococcus faecalis (GC 3059) (Enterococcus sp.) | MIC Enterococcus faecalis (GC 4552) (Enterococcus sp.) | MIC Enterococcus faecalis (GC 4553) (Enterococcus sp.) | MIC Enterococcus faecalis (GC 4554) (Enterococcus sp.) | MIC Enterococcus faecalis (GC 6189) (Enterococcus sp.) | MIC Enterococcus faecium (GC 2243) (Enterococcus sp.) | MIC Enterococcus faecium (GC 4556) (Enterococcus sp.) | MIC Enterococcus faecium (GC 4557) (Enterococcus sp.) | MIC Enterococcus faecalis (ATCC 29212) (Enterococcus sp.; inoculum 5×10^5 CFU/mL, strain ATCC 29212) | MIC Enterococcus faecalis (GC 2242) (Enterococcus sp.; inoculum 5×10^5 CFU/mL, strain GC 2242) | MIC Enterococcus faecium (GC 2243) (Enterococcus sp.; inoculum 5×10^5 CFU/mL, strain GC 2243) | MIC Enterococcus faecalis (GC 2691) (Enterococcus sp.; inoculum 5×10^5 CFU/mL, strain GC 2691) | MIC Enterococcus faecalis (GC 3059) (Enterococcus sp.; inoculum 5×10^5 CFU/mL, strain GC 3059) | MIC Enterococcus faecalis (GC 4552) (Enterococcus sp.; inoculum 5×10^5 CFU/mL, strain GC 4552) | MIC Enterococcus faecalis (GC 4553) (Enterococcus sp.; inoculum 5×10^5 CFU/mL, strain GC 4553) | MIC Enterococcus faecalis (GC 4554) (Enterococcus sp.; inoculum 5×10^5 CFU/mL, strain GC 4554) | MIC Enterococcus faecium (GC 4556) (Enterococcus sp.; inoculum 5×10^5 CFU/mL, strain GC 4556) | MIC Enterococcus faecium (GC 4557) (Enterococcus sp.; inoculum 5×10^5 CFU/mL, strain GC 4557) | MIC Enterococcus avium (GC 4558) (Enterococcus sp.; inoculum 5×10^5 CFU/mL, strain GC 4558) | MIC Enterococcus faecalis (GC 6189) (Enterococcus sp.; inoculum 5×10^5 CFU/mL, strain GC 6189)
<0.06 µg/mL: MIC Streptococcus pneumoniae (GC 1894) (Streptococcus sp.) | MIC Streptococcus pneumoniae (GC 1894) (Streptococcus sp.; inoculum 5×10^5 CFU/mL, strain GC 1894)
32 µg/mL: MIC Escherichia coli (ATCC 25922) (Escherichia coli)
1 µg/mL: MIC Staphylococcus aureus (GC 4541) (Staphylococcus sp.; strain GC 4541) | MIC Staphylococcus aureus (GC 4542) (Staphylococcus sp.; strain GC 4542) | MIC Staphylococcus aureus (GC 4545) (Staphylococcus sp.; strain GC 4545) | MIC Staphylococcus haemolyticus (GC 4546) (Staphylococcus sp.; strain GC 4546) | MIC Coagulase Negative Staphylococcus (GC 4548) (Staphylococcus sp.; strain GC 4548) | MIC Coagulase Negative Staphylococcus (GC 4549) (Staphylococcus sp.; strain GC 4549) | MIC Coagulase Negative Staphylococcus (GC 6257) (Staphylococcus sp.; strain GC 6257)
2 µg/mL: MIC Staphylococcus aureus (ATCC 29213) (Staphylococcus sp.; strain ATCC 29213) | MIC Staphylococcus aureus (GC 1131) (Staphylococcus sp.; strain GC 1131) | MIC Staphylococcus aureus (GC 3051) (Staphylococcus sp.; strain GC 3051) | MIC Staphylococcus aureus (GC 3053) (Staphylococcus sp.; strain GC 3053) | MIC Staphylococcus aureus-SMITH (GC 4543) (Staphylococcus sp.; strain GC 4543) | MIC Staphylococcus aureus (GC 4544) (Staphylococcus sp.; strain GC 4544) | MIC Coagulase Negative Staphylococcus (GC 4547) (Staphylococcus sp.; strain GC 4547) | MIC Coagulase Negative Staphylococcus (GC 4551) (Staphylococcus sp.; strain GC 4551) | MIC Escherichia coli (GC 4560) (Escherichia coli)
0.25 µg/mL: MIC Streptococcus pneumoniae (ATCC 6301) (Streptococcus sp.) | MIC Streptococcus pneumoniae (GC 4565) (Streptococcus sp.) | MIC Streptococcus pneumoniae (ATCC 6301) (Streptococcus sp.; inoculum 5×10^5 CFU/mL, strain ATCC 6301) | MIC Streptococcus pneumoniae (GC 4565) (Streptococcus sp.; inoculum 5×10^5 CFU/mL, strain GC 4565)
0.5 µg/mL: MIC Streptococcus agalactiae (GC 4564) (Streptococcus sp.) | MIC Streptococcus pyogenes (GC 4563) (Streptococcus sp.) | MIC Streptococcus pyogenes (GC 4563) (Streptococcus sp.; inoculum 5×10^5 CFU/mL, strain GC 4563) | MIC Streptococcus agalactiae (GC 4564) (Streptococcus sp.; inoculum 5×10^5 CFU/mL, strain GC 4564)
